From US7491819B1 (priority 2004, dated 2009)
Where two headings read alike, the source gives them in different places.

Key:
HIV-integrase = molecular target: T1, HIV-integrase (Human immunodeficiency virus type 1 group M subtype B, UniProt P12497); assay: HIV-Integrase Inhibition Activity (SPA bead strand-transfer assay); assay type: biochemical
T1 construct: Recombinant integrase (0.26 ng) was incubated with the beads
Outline: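 Biotin-labelled substrate DNA (5 pmole) bound to streptavidin SPA beads, preloaded with recombinant integrase (0.26 ng) for 90 min at 37° C, then washed. Inhibitors and 0.1 fmol P33-labelled target DNA added; reaction stopped with 10 mM EDTA. Integration read as scintillation CPM.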

NL-Rluc virus = assay: Inhibition of HIV replication (recombinant NL-Rluc virus, luciferase); assay type: cell-based
HIV-1 303B = assay: microbe, parasite or virus in culture; assay type: cell-based; settings: for EC50: Human immunodeficiency virus 1, MT2, 120 h; for overall antiviral effect of the two-drug combination with Example 19 (in words): classification from combination indices and confidence intervals; for Combination Indices at 50% HIV Inhibition (Confidence Interval) / Combination Indices at 75% HIV Inhibition (Confidence Interval) / Combination Indices at 90% HIV Inhibition (Confidence Interval): in combination with Example 19, 95% CI in parenthesis
Procedure: Virus and cell lines. The T-cell line, MT-2, was obtained through the AIDS Research and Reference Reagent Program. MT-2 cells were sub-cultured twice a week in RPMI 1640 medium supplemented with 10% fetal bovine serum, 2 mM L-glutamine, and 10 mM HEPES buffer pH 7.5. The HIV-1303B virus is a molecular clone derived from the NL4-3 strain of HIV-1 that was obtained from the NIH AIDS Research and Reference Reagent Program. For combinations with enfuvirtide, the NL36G virus was used. […] Virus stocks were made by transfecting 293T cells with a proviral DNA clone using LipofectAMINE PLUS (Invitrogen), according to the manufacturer's instructions. Three days post-transfection, virus was harvested and passaged once in MT-2 cells before titration in MT-2 cells.
Chemicals. Example 19, atazanavir, didanosine, stavudine, efavirenz, and enfuvirtide (T-20) were synthesized by Bristol-Myers Squibb using published or known reactions. […] Tenofovir was tested as tenofovir disopoxil fumarate. Zidovudine and zalcitabine were purchased from Sigma, and emtricitabine from Moravek Biochemicals.
Drug Susceptibility and Cytotoxicity Assays. For drug susceptibility assays, MT-2 cells were infected with HIV-1 303B (or NL36G), at an MOI of 0.001, and seeded into 96-well microtiter plates (2.5×10^5 cells/ml) containing serial dilutions of test compounds. […] Each drug ratio consisted of an array of 3-fold serial dilutions, and was performed with eight or more replicas on separate multi-well plates. HIV infected cells were incubated at 37° C. in 5% CO2, and on day five post-infection, the extent of virus replication was measured by determining cell viability using the CellTiter 96 Aqueous Non-Radioactive Cell Proliferation Assay (Promega). […] Cytotoxicity assays were performed in parallel with the combination experiments. Here, uninfected cells were exposed to the same drug combinations, and assayed after five days for cell viability using the MTS assay.
Analysis of Drug Combination Effects. For determination of combination index (CI) values, drugs were diluted in a fixed ratio and multiple ratios were analyzed. The drug serial dilutions spanned a range of concentrations near the EC50 value of each compound, so that equivalent antiviral activities could be compared. The normalized responses from each therapy are fit to the four-parameter logistic model with a common minimum and maximum across all therapies. Conceptually, this equation can be written as
In this equation, Fa stands for “fraction affected,” and represents the fraction of the viral load that has been inactivated. […] The EC50, represented by the Ci in the above equation, is the drug concentration that is expected to reduce the amount of virus by 50%, and the Bi are the parameters that reflects the slope of the concentration-response curve. For this assay, A is the bottom plateau common to all curves, D is the common top plateau, Bj is the “slope” parameter for the jth therapy, and Cj is the concentration that produces an effect equal to the average of A and D for the jth therapy. Therapies 1 and 2 correspond to mono therapies 1 and 2, respectively. Therapies 3, 4, and 5 correspond to the three combination therapies. EC50 values for each drug were determined from the single drug experiments, using the above equation. The equation was fit using a nonlinear regression routine (Proc Nlin) in PC SAS version 8.2 (SAS Institute Inc.).
To assess antiviral effects of different drug combination treatments, combination indices (CIs) were calculated according to Chou and Rideout. The combination index was computed as
In this equation [Dm]1 and [Dm]2 are the concentrations of drugs that would individually produce a specific level of effect, while [D]1 and [D]2 are the concentrations of drugs in combination that would produce the same level of effect.
Theoretically, additivity is implied if the CI is equal to one, synergy if the CI is less than one, and antagonism if the CI is greater than one.

[1] = Table 2a, read-out: HIV-Integrase Inhibition Activity
[2] = Human immunodeficiency virus 1, read-out: Inhibition of HIV replication
[3] = EC50 ratio Example 19:comparator 1:1
[4] = EC50 ratio Example 19:comparator 1:2.5
[5] = EC50 ratio Example 19:comparator 2.5:1

SMILES | IC50 (HIV-integrase; [1]) | EC50 (NL-Rluc virus; [2]) | EC50 (HIV-1 303B) | overall antiviral effect of the two-drug combination with Example 19 (in words) (HIV-1 303B) | Combination Indices at 50% HIV Inhibition (Confidence Interval) (HIV-1 303B; [3]) | Combination Indices at 75% HIV Inhibition (Confidence Interval) (HIV-1 303B; [3]) | Combination Indices at 90% HIV Inhibition (Confidence Interval) (HIV-1 303B; [3]) | Combination Indices at 50% HIV Inhibition (Confidence Interval) (HIV-1 303B; [4]) | Combination Indices at 75% HIV Inhibition (Confidence Interval) (HIV-1 303B; [4]) | Combination Indices at 90% HIV Inhibition (Confidence Interval) (HIV-1 303B; [4]) | Combination Indices at 50% HIV Inhibition (Confidence Interval) (HIV-1 303B; [5]) | Combination Indices at 75% HIV Inhibition (Confidence Interval) (HIV-1 303B; [5]) | Combination Indices at 90% HIV Inhibition (Confidence Interval) (HIV-1 303B; [5]) | other results
CC1(C)OCCn2c1nc(C(=O)NCc1ccc(F)cc1-n1ncnc1CO)c(O)c2=O [Example 308, Pyrimido[2,1-c][1,4]oxazine-2-carboxamide, N-[[4-fluoro-2-[5-(hydroxymethyl)-1H-1,2,4-triazol-1-yl]phenyl]methyl]-4,6,7,9-tetrahydro-3-hydroxy-9,9-dimethyl-4-oxo-] | 2 to 100 nM | 3 to 100 nM | – | – | – | – | – | – | – | – | – | – | – | –
CC1(C)OCCn2c1nc(C(=O)NCc1cccc(C3(C(F)(F)F)NN3)c1)c(O)c2=O [Example 104, Pyrimido[2,1-c][1,4]oxazine-2-carboxamide, 4,6,7,9-tetrahydro-3-hydroxy-9,9-dimethyl-4-oxo-N-[[3-[3-(trifluoromethyl)-3-diaziridinyl]-phenyl]-methyl]-] | – | – | – | – | – | – | – | – | – | – | – | – | – | IC50 (HIV-integrase): 100 to 1000 nM; EC50 (NL-Rluc virus; Human immunodeficiency virus 1, Table 2, serum condition not stated (10% FBS, 15 mg/ml human serum albumin/10% FBS or 40% human serum/5% FBS), at least 2 experiments, read-out: Activity (inhibition of HIV replication, EC50 class)): 100 to 1000 nM
CC1(C)OCCn2c1nc(C(=O)NCc1ccc(F)cc1S(=O)(=O)CCO)c(O)c2=O [Example 312, Pyrimido[2,1-c][1,4]oxazine-2-carboxamide, N-[[4-fluoro-2-[(2-hydroxyethyl)sulfonyl]phenyl]methyl]-4,6,7,9-tetrahydro-3-hydroxy-9,9-dimethyl-4-oxo-] | 2 to 100 nM | 3 to 100 nM | – | – | – | – | – | – | – | – | – | – | – | –
CC1(C)OCCCn2c1nc(C(=O)NCc1ccc(F)cc1-n1ccnn1)c(O)c2=O [Example 300, 6H-Pyrimido[2,1-c][1,4]oxazepine-2-carboxamide, N-[[4-fluoro-2-(1H-1,2,3-triazol-1-yl)phenyl]methyl]-4,7,8,10-tetrahydro-3-hydroxy-10,10-dimethyl-4-oxo-] | 2 to 100 nM | 3 to 100 nM | – | – | – | – | – | – | – | – | – | – | – | –
CC1(C)OCCn2c1nc(C(=O)NCc1ccc(F)cc1P(=O)(O)OCCO)c(O)c2=O [Example 292, Phosphonic acid, [5-fluoro-2-[[[(4,6,7,9-tetrahydro-3-hydroxy-9,9-dimethyl-4-oxopyrimido[2,1-c][1,4]oxazin-2-yl)carbonyl]amino]methyl]phenyl]-, mono(2-hydroxyethyl) ester] | 2 to 100 nM | > 1000 nM | – | – | – | – | – | – | – | – | – | – | – | –
Cc1ccnc2c1NC(=O)c1cccnc1N2C1CC1 [Nevirapine, nevirapine] | – | – | 95 nM | synergism at most effective concentrations and molar ratios | 0.72 (0.62, 0.82) | 0.69 (0.55, 0.83) | 0.66 (0.46, 0.87) | 0.76 (0.64, 0.87) | 0.81 (0.64, 0.97) | 0.87 (0.59, 1.15) | 0.73 (0.62, 0.83) | 0.68 (0.55, 0.81) | 0.64 (0.45, 0.84) | overall antiviral effect of the two-drug combination with Example 19 (in words) (HIV-1 303B; listed as nevaripine): strong synergistic effects
CC1(C)OCCn2c1nc(C(=O)NCc1ccc(F)cc1)c(O)c2=O [Example 19, Pyrimido[2,1-c][1,4]oxazine-2-carboxamide, N-[(4-fluorophenyl)methyl]-4,6,7,9-tetrahydro-3-hydroxy-9,9-dimethyl-4-oxo-] | – | – | 22 nM | synergistic or additive-synergistic | – | – | – | – | – | – | – | – | – | IC50 (HIV-integrase; Table 1, read-out: Activity (HIV-integrase inhibition, IC50 class)): 2 to 100 nM
CC(C)(C)NC(=O)[C@@H]1C[C@@H]2CCCC[C@@H]2CN1C[C@@H](O)[C@H](Cc1ccccc1)NC(=O)[C@H](CC(N)=O)NC(=O)c1ccc2ccccc2n1 [Saquinavir, saquinavir] | – | – | 11 nM | confidence interval is below one at all concentrations and effective levels | 0.77 (0.70, 0.84) | 0.67 (0.58, 0.75) | 0.58 (0.47, 0.69) | 0.43 (0.38, 0.48) | 0.51 (0.42, 0.59) | 0.59 (0.44, 0.74) | 0.81 (0.72, 0.89) | 0.77 (0.66, 0.89) | 0.74 (0.57, 0.91) | –
CCC1OCCn2c1nc(C(=O)NCc1ccc(F)cc1-n1ncnc1C)c(O)c2=O (stereo not shown) [Example 285, Pyrimido[2,1-c][1,4]oxazine-2-carboxamide, 9-ethyl-N-[[4-fluoro-2-(5-methyl-1H-1,2,4-triazol-1-yl)phenyl]methyl]-4,6,7,9-tetrahydro-3-hydroxy-4-oxo-] | – | 3 to 100 nM | – | – | – | – | – | – | – | – | – | – | – | –
Nc1nc(NC2CC2)c2ncn([C@H]3C=C[C@@H](CO)C3)c2n1 [Abacavir, abacavir] | – | – | 1040 nM | synergistic | 0.68 (0.59, 0.76) | 0.67 (0.56, 0.79) | 0.67 (0.49, 0.84) | 0.87 (0.77, 0.97) | 0.74 (0.63, 0.85) | 0.63 (0.50, 0.77) | 0.86 (0.76, 0.96) | 0.82 (0.68, 0.96) | 0.79 (0.58, 0.99) | –
CC(C)c1nc(CN(C)C(=O)N[C@H](C(=O)N[C@@H](Cc2ccccc2)C[C@H](O)[C@H](Cc2ccccc2)NC(=O)OCc2cncs2)C(C)C)cs1 [Ritonavir, ritonavir] | – | – | 48 nM | additive relationship with Example 19 cannot be ruled out | 0.80 (0.67, 0.93) | 0.57 (0.41, 0.73) | 0.44 (0.23, 0.65) | 0.73 (0.59, 0.88) | 0.64 (0.48, 0.80) | 0.61 (0.38, 0.85) | 0.92 (0.72, 1.11) | 0.72 (0.50, 0.93) | 0.59 (0.32, 0.87) | –
O=C1Nc2ccc(Cl)cc2[C@@](C#CC2CC2)(C(F)(F)F)O1 [Efavirenz, efavirenz] | – | – | 1.6 nM | synergism at most effective concentrations and molar ratios | 0.83 (0.75, 0.92) | 0.76 (0.64, 0.88) | 0.70 (0.54, 0.85) | 0.95 (0.86, 1.04) | 0.93 (0.85, 1.02) | 0.93 (0.79, 1.06) | 1.01 (0.92, 1.10) | 0.96 (0.83, 1.10) | 0.94 (0.73, 1.14) | –
